Experimental data from article PMC12830207, “Targeting the protein–protein interaction between the CDC37 cochaperone and client kinases by an allosteric RAF dimer breaker” (The Journal of Biological Chemistry, 2025).

Experiments:
[1] = test system: MAPK proteins (BRAF, CRAF, MEK, pMEK, ERK, pERK); test: Immunoblot of MAPK proteins in HCT116 cells; assay type: cell-based
Protocol: (§1) Western blot band densities were quantified with ImageJ software (National Institutes of Health) and normalized to the indicated loading control. Statistical significance was determined through one-/two-way ANOVA, where indicated, followed by Tukey's honest significant difference post hoc test with corresponding p values (∗p < 0.05, ∗∗p < 0.002, ∗∗∗p < 0.0002, and ∗∗∗∗p < 0.0001). All graph bars represent the mean ± SD with individual data points per biological replicate with corresponding p values.

HSP90 [2] = conditions: cited from earlier work
Excerpt: However, this approach often requires high dosages, making cells more susceptible to thermal damage and inducing HSR1 expression ([10]). […] ATP competitive inhibitors for RAF kinase encou ...

HCT116 cells = test: WST-1 cell viability assay, HCT116; assay type: cell-based; conditions: HCT116, no braftide, 24 h, WST-1; read-out: EC50 of 17-AAG alone, HCT116
Protocol: HCT116 and WM3629 cells were seeded onto polylysine-coated, clear-bottomed, 96-well plates at 15(10)^3 cells per well and allowed to incubate for 24 h. Cells were treated with braftide and 17-AAG mixtures at indicated concentrations for 24 h (37 °C). The WST-1 cell viability assay was carried out according to the manufacturer's protocols (Roche; 11644807001) for 4 h, and absorbance readings were taken at 450 nM in a CLARIOstar plate reader. For the dose–response curves of braftide and 17-AAG, the data were fit to the 4-parameter logistic equation (dose–response fitting equation) in GraphPad Prism (Dotmatics): y=A1+(A2−A1)÷(1+10^(LOGx0−x)p)
Error bars are indicative of the SEM of each point.

BRAF–CDC37 interaction = test: NanoBiT luminescence CDC37–RAF interaction reporter assay, BRAF^SmBiT–CDC37^LgBiT; assay type: cell-based, human (HEK293); conditions: HEK293, 10 µM vemurafenib, 4 hrs, Fig. S8
Excerpt: NanoBiT cytomegalovirus MCS BiBiT vector, which contains a BRAF N terminal fused with LgBiT and CRAF N terminal fused with SmBiT, was purchased from Promega. CDC37 LgBiT and CRAF SmBiT was generated using the standard Gibson Assembly (NEB HiFi Assembly) using NanoBiT BiBiT as the vector and following primers: 5′ […] 3′, 5′ […] 3′, 5′ […] 3′, 5′ […] 3′, and CDC37 LgBiT and BRAF SmBiT was generated using the standard Gibson Assembly using NanoBiT BiBiT as the vector and following primers: 5′ […] 3′, 5′ […] 3′, 5′ […] 3′, 5′ […] 3′. Primers were designed to introduce H20A, N22A, I23A triple mutation within the CDC37 FLAG tag and for NanoBiT construct CDC37(HNI/A) LgBit and BRAF SmBiT. Primers were designed to introduce the desired substitutions. The forward primer sequence was 5′ gccgcc[…] 3′, and the reverse primer sequence was 5′ gggggc[…] 3′. Site-directed mutagenesis was carried out using the Q5 Site-Directed Mutagenesis Kit (NEB; E0554) following the manufacturer's protocol.
Twenty-four hours post-transfection, cells were trypsinized, pelleted, resuspended in OptiMEM + 4% fetal bovine serum, and reseeded onto a 96-well plate at 5(10)^4 cells per well and then incubated at 37 °C overnight. Cells were pretreated with 1 μM bortezomib for 5 h and then braftide for 4 h at 0 and 25 μM. After treatment, 10 μM furimazine substrate was added to each well, and luminescence readings were taken at 470 to 480 nm using a CLARIOstar plate reader. Statistical significance was determined through a paired t test where indicated, followed by Tukey's honest significant difference post hoc test with corresponding p values (∗p < 0.05, ∗∗p < 0.01, and ∗∗∗p < 0.001). All graph bars represent the mean ± SD with individual data points per biological replicate with corresponding p values.

ERK = conditions: cited from earlier work
Excerpt: The RAF kinase family, comprising ARAF, BRAF, and CRAF, is one of the well-studied clients of CDC37. RAF kinase is a core component of the mitogen-activated protein kinase (MAPK) (RAS–RAF–mitogen-activated protein kinase kinase [MEK]–extracellular signal–regulated kinase [ERK]) pathway, governing cell proliferation, survival, senescence, differentiation, and migration ([18]). […] While ATP-competitive inhibitors like vemurafenib, dabrafenib, and encorafenib ...

HSP90–CDC37 complex = conditions: cited from earlier work
Excerpt: Unlike conventional HSP90 inhibitors, braftide preserves HSP90 activity while disrupting CDC37–client interactions, minimizing cytotoxicity and enhancing therapeutic precision. Braftide's ability to destabilize RAF through CDC37 inhibition may offer an alternative to high-dose HSP90 inhibitors, mitigating their associated side effects. […] While most HSP90–CDC37 inhibitors focus on HSP90 ATP-competitive inhibition ([6]), emerging ...

MAPK proteins / pERK = test: Immunoblot of protein degradation and pERK with control peptide in HEK293; assay type: cell-based, human (HEK293); conditions: HEK293 cotransfected with CDC37 and RAF (Fig. S2A)
Protocol: as §1

CDC37 = test: Photo-crosslinking and streptavidin pull-down, CDC37; assay type: binding, human (HEK293); conditions: 10 μM peptide, lysate of HEK293 with CDC37-FLAG/BRAF-V5, 4 h, 4 °C, UV 1 h, streptavidin
Protocol: (§2) Transfected HEK293 cells were treated with the indicated treatments and harvested in cold PBS. The cell pellets were lysed in modified RIPA buffer (50 mM Hepes [pH 7.4], 150 mM sodium chloride, 0.1% NP-40 [IGEPAL630], 1 mM EDTA, 5% glycerol, 1 mM PMSF, 20 mM β-glycerophosphate, 2.5 mM sodium pyrophosphate, and 1 protease inhibitor tablet) and incubated with rotation for 2 h, 4 °C. Cell lysates were then incubated with resin (FLAG-M2 magnetic, Sigma [M8823] or streptavidin, Pierce [88816]) for 2 h to bind the tagged BRAF–CRAF or BTN–braftide-crosslinked proteins. The samples were washed five times in a modified RIPA buffer and quenched in loading dye (BTN IP elution was supplemented with 20 mM biotin in loading dye) and heated at 95 °C, 5 min. Samples were analyzed via immunoblot.
(§3) HEK293 cells were cotransfected with CDC37 (FLAG-tagged) and BRAF (V5-tagged). Cells were harvested in cold PBS, and pellets were lysed in modified RIPA buffer with rotation for 2 h, 4 °C. Cell lysate (1 mg) was incubated with 0 or 10 μM BTN–braftide/JAK2, with rotation for 4 h, at 4 °C. Samples were then exposed to […] UV light for 1 h over ice. After UV treatment, samples were incubated with Pierce Streptavidin magnetic beads (catalog no.: 88816) for 17 h at 4 °C, to bind BTN–braftide. […] Samples were analyzed via immunoblot.

HSP90 [3] = test: Photo-crosslinking and streptavidin pull-down, HSP90; assay type: binding, human (HEK293); conditions: 10 μM peptide, HEK293 lysate, 4 h, 4 °C, UV 1 h, streptavidin
Protocol: as §2, §3

BRAF = test: Photo-crosslinking and streptavidin pull-down, BRAF; assay type: binding, human (HEK293); conditions: 10 μM peptide, lysate of HEK293 with CDC37-FLAG/BRAF-V5, 4 h, 4 °C, UV 1 h, streptavidin
Protocol: as §2, §3

AKT1 = test: Photo-crosslinking and streptavidin pull-down, AKT1; assay type: binding, human (HEK293); conditions: 10 μM peptide, HEK293 lysate, 4 h, 4 °C, UV 1 h, streptavidin
Protocol: as §2, §3

CRAF = test: Photo-crosslinking and streptavidin pull-down, endogenous CRAF; assay type: binding, human (HEK293); conditions: 10 μM peptide, HEK293 lysate, 4 h, 4 °C, UV 1 h, streptavidin
Protocol: as §2, §3

[4] = biological target: HSP90 (endogenous, HEK293), P07900; test: co-immunoprecipitation (IP: FLAG), immunoblot band quantification; conditions: chain shown with the change, representative blot

For C=CCNC1=C2C[C@@H](C)C[C@H](OC)[C@H](O)[C@@H](C)/C=C(\C)[C@H](OC(N)=O)[C@@H](OC)/C=C\C=C(/C)C(=O)NC(=CC1=O)C2=O [17-AAG, 17-N-allylamino-17-demethoxygeldanamycin, reference compound], the “CRAF degradation and MAPK signaling, combination” value ([1]; HCT116, 500 nM 17-AAG + 500 nM braftide, immunoblot, n = 3) was “significant degradation of CRAF kinase and downregulation of MAPK signaling”, the “inhibition by monotherapy at 500 nM” value ([1]; HCT116, 500 nM single agent, immunoblot) was “Neither 17-AAG nor braftide monotherapy exhibited obvious inhibition” and the “concentration at which CRAF kinase level is depleted, 17-AAG monotherapy” value ([1]; HCT116, 17-AAG alone, 16 h, immunoblot) was 2 µM. For the same molecule, the “cytotoxicity in clinical trials” value (HSP90 [2]) was “its clinical trials faced challenges because of high cytotoxicity” and the EC50 (HCT116 cells) was greater than 5 µM.

In the case of CCCS(=O)(=O)Nc1ccc(F)c(C(=O)c2c[nH]c3ncc(-c4ccc(Cl)cc4)cc23)c1F [Vemurafenib, reference compound], the “NanoBiT BRAF–CDC37 interaction, vemurafenib” value (BRAF–CDC37 interaction) is listed as “disrupted the interaction between BRAF and CDC37 in the NanoBiT assay” and the “paradoxical activation of downstream ERK” value (ERK) is listed as “can lead to paradoxical activation of downstream ERK under certain conditions”.

For CC1=C[C@H](C)C[C@H](C)[C@H](Cc2cnco2)OC(=O)/C(C)=C\[C@H](C)C[C@H](C)[C@H](Cc2cnco2)OC1=O [conglobatin A], the “dissociation of HSP90–CDC37 complex” value (HSP90–CDC37 complex) is listed as “allosterically dissociate the HSP90–CDC37 complex”.

For CC(C)(C)c1nc(-c2cccc(NS(=O)(=O)c3c(F)cccc3F)c2F)c(-c2ccnc(N)n2)s1 [dabrafenib], the “paradoxical activation of downstream ERK” value (ERK) is given as “can lead to paradoxical activation of downstream ERK under certain conditions”.

For COC(=O)N[C@@H](C)CNc1nccc(-c2cn(C(C)C)nc2-c2cc(Cl)cc(NS(C)(=O)=O)c2F)n1 [encorafenib], the “paradoxical activation of downstream ERK” value (ERK) is listed as “can lead to paradoxical activation of downstream ERK under certain conditions”.

For C[C@@H]1O[C@@H](O[C@H]2[C@H](OC(=O)[C@]34CCC(C)(C)C[C@H]3C3=CC[C@@H]5[C@@]6(C)C[C@H](O)[C@H](O[C@@H]7O[C@H](CO)[C@@H](O)[C@H](O)[C@H]7O)C(CO)(CO)[C@@H]6CC[C@@]5(C)[C@]3(C)C[C@H]4O)OC[C@H](O)[C@@H]2O)[C@H](O)[C@H](O)[C@H]1O[C@@H]1OC[C@@H](O)[C@H](O[C@@H]2OC[C@](O)(CO)[C@H]2O)[C@H]1O [platycodin D], the “dissociation of HSP90–CDC37 complex” value (HSP90–CDC37 complex) is given as “allosterically dissociate the HSP90–CDC37 complex”.

In the case of “Biotin-GRKKRRQRRRPQ-miniPEG-SxQHDNIVKY [BTN–JAK2, biotinylated control peptide derived from the αC helix–β4 loop of the JAK2 kinase, same TAT-miniPEG fragment, reference compound]”, the “protein degradation and pERK levels with control peptide” value (MAPK proteins / pERK) is reported as “did not induce protein degradation or reduce pERK levels”, the “co-immunoprecipitation of CDC37 with biotinylated peptide” value (CDC37) is reported as “did not coimmunoprecipitate BRAF, CDC37, or HSP90 under the same conditions” and the “co-immunoprecipitation of HSP90 with biotinylated peptide” value (HSP90 [3]) is reported as “did not coimmunoprecipitate BRAF, CDC37, or HSP90 under the same conditions”. For the same molecule, the “co-immunoprecipitation of BRAF with biotinylated peptide” value (BRAF) was “did not coimmunoprecipitate BRAF, CDC37, or HSP90 under the same conditions”.

For “Biotin-GRKKRRQRRRPQ-miniPEG-TRHVNILxFM [BTN–braftide]”, the “co-immunoprecipitation of AKT1 with biotinylated peptide” value (AKT1) was “Neither AKT1 nor HSP90 was pulled down in this assay”, the “co-immunoprecipitation of CDC37 with biotinylated peptide” value (CDC37) was “coimmunoprecipitated CDC37, BRAF, and endogenous CRAF” and the “co-immunoprecipitation of HSP90 with biotinylated peptide” value (HSP90 [3]) was “Neither AKT1 nor HSP90 was pulled down in this assay”. For the same molecule, the “co-immunoprecipitation of BRAF with biotinylated peptide” value (BRAF) was “coimmunoprecipitated CDC37, BRAF, and endogenous CRAF” and the “co-immunoprecipitation of endogenous CRAF with biotinylated peptide” value (CRAF) was “coimmunoprecipitated CDC37, BRAF, and endogenous CRAF”.

For “GRKKRRQRRRPQ-miniPEG-SLQHDNIVKY [TAT–JAK2, negative control peptide derived from the αC helix–β4 loop of the JAK2 kinase, reference compound]”, the “MAPK proteins with control peptide” value ([1]; HCT116, 4 h, Fig. S2A) was “MAPK proteins are unaffected by control peptide”.

In the case of “GRKKRRQRRRPQ-miniPEG-THHVNILLFM [R/H peptide]”, the “protein degradation of BRAF, CRAF, MEK, and ERK” value ([1]; HCT116, braftide^R2H, 4 h, immunoblot) is reported as “failed to induce protein degradation of BRAF, CRAF, MEK, and ERK” and the “impact on MAPK signaling” value ([1]; HCT116, braftide^R2H, 4 h, pMEK and pERK immunoblot) is reported as “had no impact on MAPK signaling in HCT116 cells”.

B1: CDC37-myc-FLAG, Q16543 H20A; N22A; I23A (protein)
chain: MVDYSVWDHIEVSDDEDETAPAADTASLFRWRHQARVERMEQFQKEKEELDRGCRECKRKVAECQRKLKELEVAEGGKAELERLQAEAQQLRKEERSWEQKLEEMRKKEKSMPWNVDTLSKDGFSKSMVNTKPEKTEEDSEEVREQKHKTFVEKYEKQIKHFGMLRRWDDSQKYLSDNVHLVCEETANYLVIWCIDLEVEEKCALMEQVAHQTIVMQFILELAKSLKVDPRACFRQFFTKIKTADRQYMEGFNDELEAFKERVRGRAKLRIEKAMKEYEEEERKKRLGPGGLDPVEVYESLPEELQKCFDVKDVQMLQDAISKMDPTDAKYHMQRCIDSGLWVPNSKASEAKEGEEAGPGDPLLEAVPKTGDEKDVSV
Work on B1 yielded a ratio to parent ([4]; HEK293 cells coexpressing BRAF-V5) of 1.01 and a ratio to parent ([4]; HEK293 cells coexpressing CRAF-HA) of 0.91.
